The values below come from US20230322846A9, “NEUROACTIVE STEROIDS AND THEIR METHODS OF USE” (SAGE THERAPEUTICS, INC., priority 2018, published 2023).

This experiment concerns the target [35S]-TBPS binding, rat brain cortical membranes. As to the kind of experiment: Steroid inhibition of [35S]-TBPS binding. Conditions: 3 nM [35S]-TBPS, in the presence of 5 mM GABA. The method in brief:
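In the presence of […], compounds (DMSO 0.5% final) competed with 3 nM [35S]-TBPS for Sprague-Dawley rat cortical membranes, pH 7.4 phosphate buffer, 90 min, room temperature. Filtration and scintillation counting; specific binding defined by […]; IC50 and maximal inhibition fitted per experiment, averaged as mean ± SEM.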

Broadly, the IC50 is the concentration that gives 50% inhibition. As to `CCC[C@@]1(O)CC[C@@]2(C)[C@H](CC[C@@H]3[C@@H]2CC[C@]2(C)[C@@H]([C@@H](C)Cn4nnnc4C)CC[C@@H]32)C1` [Example 315, (3R,5R,8R,9S,10S,13S,14S,17R)-10,13-dimethyl-17-((R)-1-(5-methyl-1H-tetrazol-1-yl)propan-2-yl)-3-propylhexadecahydro-1H-cyclopenta[a]phenanthren-3-ol], the IC50 was below 100 nM.

Turning to `C[C@@H](NC(=O)c1ccccc1)[C@H]1CC[C@H]2[C@@H]3CC[C@@H]4C[C@](C)(O)CC[C@@H]4[C@H]3CC[C@]12C` [Example 24, N—((R)-1-((3R,5R,8R,9R,10S,13S,14S,17S)-3-hydroxy-3,13-dimethylhexadecahydro-1H-cyclopenta[a]phenanthren-17-yl)ethyl)benzamide], the IC50 is below 100 nM. To `COC[C@@]1(O)CC[C@H]2[C@H](CC[C@@H]3[C@@H]2CC[C@]2(C)[C@@H]([C@@H](C)NC(=O)c4ccc(OC(F)(F)F)cc4)CC[C@@H]32)C1` [Example 111] belongs below 100 nM. To `C[C@H](NC(=O)c1ccc(F)cc1)[C@H]1CC[C@H]2[C@@H]3CC[C@@H]4C[C@](C)(O)CC[C@@H]4[C@H]3CC[C@]12C` [Example 117] belongs 1000 to 10000 nM. To `COC[C@@]1(O)CC[C@H]2[C@H](CC[C@@H]3[C@@H]2CC[C@]2(C)[C@@H]([C@@H](C)NC(=O)c4cc(C)nn4C)CC[C@@H]32)C1` [Example 118] belongs 100 to 1000 nM. Turning to `COC[C@@]1(O)CC[C@H]2[C@H](CC[C@@H]3[C@@H]2CC[C@]2(C)[C@@H]([C@@H](C)NC(=O)c4ccc(C#N)cn4)CC[C@@H]32)C1` [Example 31, 5-cyano-N—((R)-1-((3R,5R,8R,9R,10S,13S,14S,17S)-3-hydroxy-3-(methoxymethyl)-13-methylhexadecahydro-1H-cyclopenta[a]phenanthren-17-yl)ethyl)picolinamide], the 50% inhibitory concentration (IC50) lay in the range of 100 to 1000 nM. To `C[C@@H](Cn1cc(C#N)cn1)[C@H]1CC[C@H]2[C@@H]3CC[C@@H]4C[C@](C)(O)CC[C@@H]4[C@H]3CC[C@]12C` [Example 51, 1-((R)-2-((3R,5R,8R,9R,10S,13S,14S,17R)-3-hydroxy-3,13-dimethylhexadecahydro-1H-cyclopenta[a]phenanthren-17-yl)propyl)-1H-pyrazole-4-carbonitrile] belongs below 100 nM. To `COC[C@@]1(O)CC[C@H]2[C@H](CC[C@@H]3[C@@H]2CC[C@]2(C)[C@@H]([C@@H](C)Cn4cc(C#N)cn4)CC[C@@H]32)C1` [Example 92, 1-((R)-2-((3R, 5R, 8R, 9R, 10S, 13S, 14S, 17R)-3-hydroxy-3-(methoxymethyl)-13-methylhexadecahydro-1H-cyclopenta[a]phenanthren-17-yl)propyl)-1H-pyrazole-4-carbonitrile] belongs below 100 nM.

In the case of `CCOC[C@@]1(O)CC[C@H]2[C@H](CC[C@@H]3[C@@H]2CC[C@]2(C)[C@@H]([C@@H](C)Cn4nccn4)CC[C@@H]32)C1` [Example 266, (3R,5R,8R,9R,10S,13S,14S,17R)-17-((R)-1-(2H-1,2,3-triazol-2-yl)propan-2-yl)-3-(ethoxymethyl)-13-methylhexadecahydro-1H-cyclopenta[a]phenanthren-3-ol], the IC50 was in the range of 100 to 1000 nM. To `CCOC[C@@]1(O)CC[C@H]2[C@H](CC[C@@H]3[C@@H]2CC[C@]2(C)[C@@H]([C@@H](CC)Cn4nccc4C#N)CC[C@@H]32)C1` [Example 500, 1-((R)-2-((3R,5R,8R,9R,10S,13S,14S,17R)-3-(ethoxymethyl)-3-hydroxy-13-methylhexadecahydro-1H-cyclopenta[a]phenanthren-17-yl)butyl)-1H-pyrazole-5-carbonitrile] belongs 1000 to 10000 nM. To `C[C@@H]([C@H]1CC[C@H]2[C@@H]3CC[C@@H]4C[C@](C)(O)CC[C@@H]4[C@H]3CC[C@]12C)n1cc(C#N)cn1` [Example 157, 1-((S)-1-((3R,5R,8R,9R,10S,13S,14S,17S)-3-hydroxy-3,13-dimethylhexadecahydro-1H-cyclopenta[a]phenanthren-17-yl)ethyl)-1H-pyrazole-4-carbonitrile] belongs 1000 to 10000 nM; to `CCOC[C@@]1(O)CC[C@H]2[C@H](CC[C@@H]3[C@@H]2CC[C@]2(C)[C@@H]([C@@H](C)NS(=O)(=O)c4cccc(C#N)n4)CC[C@@H]32)C1` [Example 71], 100 to 1000 nM.

In the case of `COC[C@@]1(O)CC[C@H]2[C@H](CC[C@@H]3[C@@H]2CC[C@]2(C)[C@@H]([C@H](C)Cc4cnc(C)cn4)CC[C@@H]32)C1` [Example 423], the IC50 was in the range of 100 to 1000 nM. To `C[C@H](Cc1ncc(CO)s1)[C@H]1CC[C@H]2[C@@H]3CC[C@@H]4C[C@](C)(O)CC[C@@H]4[C@H]3CC[C@]12C` [Example 429] belongs below 100 nM. Take `C[C@@H](Cn1cc(C#N)cn1)[C@H]1CC[C@H]2[C@@H]3CC[C@@H]4C[C@](C)(O)CC[C@]4(C)[C@H]3CC[C@]12C` [Example 305, 1-((R)-2-((3R,5R,8R,9S,10S,13S,14S,17R)-3-hydroxy-3,10,13-trimethylhexadecahydro-1H-cyclopenta[a]phenanthren-17-yl)propyl)-1H-pyrazole-4-carbonitrile]: the IC50 is below 100 nM. Regarding `CCC[C@@]1(O)CC[C@H]2[C@H](CC[C@@H]3[C@@H]2CC[C@]2(C)[C@@H]([C@@H](C)Nc4ccc(C#N)cn4)CC[C@@H]32)C1` [Example 90, 6-(((R)-1-((3R,5R,8R,9R,10S,13S,14S,17S)-3-hydroxy-13-methyl-3-propylhexadecahydro-1H-cyclopenta[a]phenanthren-17-yl)ethyl)amino)nicotinonitrile], the concentration for half-maximal inhibition (IC50) was 100 to 1000 nM. `COC[C@@]1(O)CC[C@@]2(C)[C@H](CC[C@@H]3[C@@H]2[C@@H](O)C[C@]2(C)[C@@H]([C@@H](C)Cn4cc(C#N)cn4)CC[C@@H]32)C1` [Example 327, 1-((R)-2-((3R,5R,8S,9S,10S,11S,13S,14S,17R)-3,11-dihydroxy-3-(methoxymethyl)-10,13-dimethylhexadecahydro-1H-cyclopenta[a]phenanthren-17-yl)propyl)-1H-pyrazole-4-carbonitrile]: the concentration for half-maximal inhibition (IC50) was in the range of 100 to 1000 nM. For `C[C@@H](NC(=O)c1ccccn1)[C@H]1CC[C@H]2[C@@H]3CC[C@@H]4C[C@](C)(O)CC[C@@H]4[C@H]3CC[C@]12C` [Example 100], the IC50 lay within 100 to 1000 nM. To `COC[C@@]1(O)CC[C@H]2[C@H](CC[C@@H]3[C@@H]2CC[C@]2(C)[C@@H]([C@@H](C)Nc4ccc(C#N)nc4)CC[C@@H]32)C1` [Example 258] belongs 100 to 1000 nM. To `C[C@@H]1CCCC(=O)N1C[C@H]1CC[C@H]2[C@@H]3CC[C@@H]4C[C@](C)(O)CC[C@@H]4[C@H]3CC[C@]12C` [Example 7, (R)-1-(((3R,5R,8R,9R,10S,13S,14S,17S)-3-hydroxy-3,13-dimethylhexadecahydro-1H-cyclopenta[a]phenanthren-17-yl)methyl)-6-methylpiperidin-2-one] belongs 1000 to 10000 nM; to `COC[C@@]1(O)CC[C@H]2[C@H](CC[C@@H]3[C@@H]2CC[C@]2(C)[C@@H]([C@@H](C)NC(=O)c4ccc(F)cn4)CC[C@@H]32)C1` [Example 125], 100 to 1000 nM; to `CCOC[C@@]1(O)CC[C@H]2[C@H](CC[C@@H]3[C@@H]2CC[C@]2(C)[C@@H]([C@H](C)n4ncc(C#N)c4N)CC[C@@H]32)C1` [Example 161, 5-amino-1-((S)-1-((3R,5R,8R,9R,10S,13S,14S,17S)-3-(ethoxymethyl)-3-hydroxy-13-methylhexadecahydro-1H-cyclopenta[a]phenanthren-17-yl)ethyl)-1H-pyrazole-4-carbonitrile], 1000 to 10000 nM.

As to `CCC[C@@]1(O)CC[C@@]2(C)[C@H](CC[C@@H]3[C@@H]2CC[C@]2(C)[C@@H]([C@H](C)Cn4nnc(C)n4)CC[C@@H]32)C1` [Example 314, (3R,5R,8R,9S,10S,13S,14S,17R)-10,13-dimethyl-17-((S)-1-(5-methyl-2H-tetrazol-2-yl)propan-2-yl)-3-propylhexadecahydro-1H-cyclopenta[a]phenanthren-3-ol], the IC50 lay in the range of 100 to 1000 nM. To `C[C@@H](Cc1nc(C(F)(F)F)cs1)[C@H]1CC[C@H]2[C@@H]3CC[C@@H]4C[C@](C)(O)CC[C@@H]4[C@H]3CC[C@]12C` [Example 449] belongs below 100 nM. To `CC[C@@]1(O)CC[C@H]2[C@@H](CC[C@@H]3[C@@H]2CC[C@]2(C)[C@@H]([C@H](C)Cn4nnnc4C)CC[C@@H]32)C1` [Example 336, (3R,5S,8R,9R,10S,13S,14S,17R)-3-ethyl-13-methyl-17-((S)-1-(5-methyl-1H-tetrazol-1-yl)propan-2-yl)hexadecahydro-1H-cyclopenta[a]phenanthren-3-ol] belongs at least 10000 nM.

Turning to `CC[C@]12CC[C@@](C)(O)C[C@H]1CC[C@H]1[C@@H]3CC[C@H](C(C)Cn4cc(C#N)cn4)[C@@]3(C)CC[C@@H]12` (stereo in doubt) [Example 325, 1-((S)-2-((3R,5R,8S,9S,10S,13S,14S,17R)-10-ethyl-3-hydroxy-3,13-dimethylhexadecahydro-1H-cyclopenta[a]phenanthren-17-yl)propyl)-1H-pyrazole-4-carbonitrile], the IC50 is below 100 nM. To `COC[C@@]1(O)CC[C@H]2[C@H](CC[C@@H]3[C@@H]2CC[C@]2(C)[C@@H]([C@@H](C)NC(=O)c4ccc(F)cc4F)CC[C@@H]32)C1` [Example 134] belongs below 100 nM; to `COC[C@@]1(O)CC[C@H]2[C@H](CC[C@@H]3[C@@H]2CC[C@]2(C)[C@@H]([C@@H](C)NC(=O)c4ccc(C#N)cc4F)CC[C@@H]32)C1` [Example 131], below 100 nM.
